From patent publication US20250011311A1, “AMIDO HETEROAROMATIC COMPOUNDS” (AstraZeneca AB, priority 2022, published 2025)

Experiments:
[1] = molecular target: recombinant 17bHSD13 (N2-K300) (Homo sapiens (Human), UniProt Q7Z5P4); assay: In Vitro 17bHSD13 Enzyme Assay; type: biochemical; settings: 80 nM 17bHSD13, 0.5 mM NAD, 20 μM Estradiol, 2.5 h; estradiol to estrone by LC-MS/MS
Summary of the method: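 Human 17bHSD13 (N2-K300, 80 nM) with 0.5 mM NAD, 20 μM estradiol and varied compound in 50 mM Tris-Cl pH 7.4, 5 mM EDTA, 0.01% DDM. Estrone/(estrone+estradiol) ratio read by LC-MS/MS (APCI, positive MRM). Inhibition normalised to DMSO and a known-inhibitor control; IC50 from curve fit.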

CYP2C9 = CYP2C9 (Homo sapiens (Human), UniProt P11712); assay: Assay B: Cytochrome P450 Inhibition 2C9
[2] = molecular target: recombinant 17bHSD4 (M1-N311) (Homo sapiens (Human), UniProt P51659); assay: In Vitro 17bHSD4 Enzyme Assay; type: biochemical; settings: 40 nM 17bHSD4, 0.125 mM NAD, 15 μM Estradiol, 1.5 h; NADH fluorescence; read-out: 17HSD17b4 Enzyme assay IC50
human hepatocytes = assay: Assay A: Metabolic Stability in Human Hepatocytes; type: in vitro ADME; settings: cryopreserved human hepatocytes, 10^6 viable cells/mL, 1 μM compound, 37° C.
Method: Assay A: Metabolic Stability in Human Hepatocytes
Hepatocyte metabolic stability was determined in accordance with the method described by Jacobson et al., An optimized automated assay for determination of metabolic stability using hepatocytes: assay validation, variance component analysis, and in vivo relevance. Assay Drug Dev Technol 2007, 5 (3), 403-415. DOI: 10.1089/adt.2007.059, which is incorporated herein by reference. Cryopreserved hepatocytes at a concentration of 10^6 viable cells/mL were used. After thawing, hepatocytes were incubated for 10 min to warm to 37° C. and test compounds, dissolved in acetonitrile, were added to give a final concentration of 1 μM. At 0.5, 5, 15, 30, 45, 60, 80, 100 and 120 min, the incubation system was mixed and 20 μL aliquots were transferred at each time point to wells in a separate plate filled with 80 μL MeCN to stop the reaction. The quenching plate was then vortexed followed by centrifugation, and supernatants were analyzed by LC-MS/MS. Peak areas were determined from extracted ion chromatograms, and the in vitro intrinsic clearance (in vitro CLint, in μL/min/10^6 cells) of parent compound was calculated from the slope in the regression analysis of the natural logarithm of parent concentration vs time curve.

[3] = molecular target: over expressed HSD17β13 in HEK293S cells (Homo sapiens (Human), UniProt Q7Z5P4); assay: In Vitro 17bHSD13 Cell Assay; type: cell-based; settings: HEK293S cells over expressing HSD17β13; estradiol to estrone conversion, 18 h, LC-MS/MS; read-out: 17bHSD1713 Cell assay IC50
Summary of the method: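 HEK293S cells overexpressing HSD17β13 convert estradiol to estrone; product read by LC-MS/MS (APCI, positive MRM) as AUC ratio estrone/(estrone+estradiol). Effect normalised between DMSO and maximal inhibition by a known inhibitor control; IC50 from curve fit.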

Chain of over expressed HSD17β13 in HEK293S cells (Q7Z5P4 20-300): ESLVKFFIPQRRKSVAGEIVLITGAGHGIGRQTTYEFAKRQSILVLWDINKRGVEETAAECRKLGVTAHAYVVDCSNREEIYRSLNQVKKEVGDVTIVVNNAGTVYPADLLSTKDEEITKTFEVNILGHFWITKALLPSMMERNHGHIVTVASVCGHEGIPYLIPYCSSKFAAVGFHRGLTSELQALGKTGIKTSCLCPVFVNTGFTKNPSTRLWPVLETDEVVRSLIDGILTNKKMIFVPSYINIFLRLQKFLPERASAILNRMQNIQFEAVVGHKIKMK
Chain of recombinant 17bHSD4 (M1-N311) (P51659 1-311): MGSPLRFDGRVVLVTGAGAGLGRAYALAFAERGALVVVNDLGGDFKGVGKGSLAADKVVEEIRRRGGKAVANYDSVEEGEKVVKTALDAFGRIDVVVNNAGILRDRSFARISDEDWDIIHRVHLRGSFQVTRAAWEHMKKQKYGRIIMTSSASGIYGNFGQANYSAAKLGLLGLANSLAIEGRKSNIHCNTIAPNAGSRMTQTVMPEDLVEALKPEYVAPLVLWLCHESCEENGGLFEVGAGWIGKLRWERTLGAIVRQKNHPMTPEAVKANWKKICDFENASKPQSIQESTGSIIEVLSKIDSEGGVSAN
Chain of recombinant 17bHSD13 (N2-K300) (Q7Z5P4 2-300): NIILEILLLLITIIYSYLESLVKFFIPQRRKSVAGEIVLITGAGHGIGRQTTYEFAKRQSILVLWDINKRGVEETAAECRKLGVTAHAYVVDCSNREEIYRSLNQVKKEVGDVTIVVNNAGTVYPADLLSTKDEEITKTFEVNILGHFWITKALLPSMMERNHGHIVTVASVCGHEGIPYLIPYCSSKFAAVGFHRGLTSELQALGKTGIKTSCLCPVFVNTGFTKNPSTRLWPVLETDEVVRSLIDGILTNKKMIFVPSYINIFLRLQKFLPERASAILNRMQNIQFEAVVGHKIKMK
Chain of CYP2C9 (P11712 whole entry): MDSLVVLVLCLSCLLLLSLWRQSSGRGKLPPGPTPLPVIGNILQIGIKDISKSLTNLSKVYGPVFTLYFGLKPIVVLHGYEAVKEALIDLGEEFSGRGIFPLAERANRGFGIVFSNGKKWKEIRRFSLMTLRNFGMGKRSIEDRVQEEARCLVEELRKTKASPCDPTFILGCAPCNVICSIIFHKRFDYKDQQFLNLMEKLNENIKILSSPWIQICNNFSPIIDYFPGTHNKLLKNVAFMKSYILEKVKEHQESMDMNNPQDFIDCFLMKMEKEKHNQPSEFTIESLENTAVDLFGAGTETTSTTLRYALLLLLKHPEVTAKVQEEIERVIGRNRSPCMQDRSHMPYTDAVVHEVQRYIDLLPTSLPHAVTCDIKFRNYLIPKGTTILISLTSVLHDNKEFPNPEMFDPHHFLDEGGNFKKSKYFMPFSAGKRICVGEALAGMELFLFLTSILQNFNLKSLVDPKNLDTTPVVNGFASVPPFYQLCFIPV

SMILES	IC50 [1] [nM]	IC50 (CYP2C9) [nM]	IC50 [2] [nM]	IC50 [3] [nM]	Assay A: Human Heps Met Clint GMean CLint (μl/min/1E6) (human hepatocytes)
O=C(c1noc(-c2cc(F)c(F)c(O)c2F)n1)N1CCOC2(CC2)C1 [Example 118, (4-Oxa-7-azaspiro[2.5]octan-7-yl)(5-(2,4,5-trifluoro-3-hydroxyphenyl)-1,2,4-oxadiazol-3-yl)methanone]	1080	7800	> 50000	220	4.6
C[C@@H]1CN(C(=O)c2noc(-c3cc(F)c(F)c(O)c3F)c2C#N)C[C@H](C)O1 [Example 22, 3-((2R,6S)-2,6-Dimethylmorpholine-4-carbonyl)-5-(2,4,5-trifluoro-3-hydroxyphenyl)isoxazole-4-carbonitrile]	532	1200	> 50000	1120	6.3
O=C(c1noc(-c2cc(C(F)(F)F)[nH]c(=O)c2)n1)N1CCC(c2ccccc2)C1 (stereo not drawn) [Example 9, 4-(3-(3-Phenylpyrrolidine-1-carbonyl)-1,2,4-oxadiazol-5-yl)-6-(trifluoromethyl)pyridin-2(1H)-one]	422	5700	> 50000	5550	262.2
COc1cccc(N2CCN(C(=O)c3noc(-c4cc(F)c(F)c(O)c4F)c3C#N)CC2)c1 [Example 16, 3-(4-(3-Methoxyphenyl)piperazine-1-carbonyl)-5-(2,4,5-trifluoro-3-hydroxyphenyl)isoxazole-4-carbonitrile]	137	800	15400	4560	56.8
C[C@@H]1CN(C(=O)c2ccc(-c3cc(F)c(F)c(O)c3F)s2)C[C@H](C)O1 [Example 3, ((2R,6S)-2,6-Dimethylmorpholino)(5-(2,4,5-trifluoro-3-hydroxyphenyl)thiophen-2-yl)methanone]	36	1600	31500	30	

Second part, led by results:

IC50 [1] [nM]	IC50 (CYP2C9) [nM]	IC50 [2] [nM]	IC50 [3] [nM]	SMILES	Assay A: Human Heps Met Clint GMean CLint (μl/min/1E6) (human hepatocytes)
207	14800	24000	270	C[C@@H]1CC[C@H](C)N1C(=O)c1noc(-c2cc(F)c(F)c(O)c2F)n1 [Example 38, ((2R,5S)-2,5-Dimethylpyrrolidin-1-yl)(5-(2,4,5-trifluoro-3-hydroxyphenyl)-1,2,4-oxadiazol-3-yl)methanone]	2.1
159	8300	> 50000	300	CC1(C)CN(C(=O)c2noc(-c3cc(F)c(F)c(O)c3F)n2)CC(C)(C)O1 [Example 32, (2,2,6,6-Tetramethylmorpholino)(5-(2,4,5-trifluoro-3-hydroxyphenyl)-1,2,4-oxadiazol-3-yl)methanone]	4.1
93	4900	> 50000	100	C[C@@H]1C[C@H](C)CN(C(=O)c2nc(-c3cc(F)c(F)c(O)c3F)no2)C1 [Example 111, ((3R,5S)-3,5-Dimethylpiperidin-1-yl)(3-(2,4,5-trifluoro-3-hydroxyphenyl)-1,2,4-oxadiazol-5-yl)methanone]	
34	200	8500	1210	O=C(c1ccc(-c2cc(F)c(F)c(O)c2F)s1)N1CC[C@H](c2ccccc2)C1 [Example 33, (R)-(3-Phenylpyrrolidin-1-yl)(5-(2,4,5-trifluoro-3-hydroxyphenyl)thiophen-2-yl)methanone]	124.3
57	7800	30500	30	C[C@@H]1C[C@H](C)CN(C(=O)c2noc(-c3cc(F)c(F)c(O)c3F)n2)C1 [Example 37, ((3R,5S)-3,5-Dimethylpiperidin-1-yl)(5-(2,4,5-trifluoro-3-hydroxyphenyl)-1,2,4-oxadiazol-3-yl)methanone]	6.7
